Laboratory results as given in PubChem BioAssay AID1259407 (Chemical Carcinogenesis Research Information System (CCRIS), 2018).
Calls of active or inactive are those of the source. How the calls were made is not given here.

Tested on: CCRIS mutagenicity, Ames/micronucleus/aberration tests
Experiment: CCRIS mutagenicity studies

CCCCN(CCCC)N=O was tested, and the mutagenic call (Test System: AMES SALMONELLA TYPHIMURIUM, Strain/Indicator: TA100, Metabolic Activation: MOUSE, INTACT UROTHELIAL CELLS, Method: FLUCTUATION TEST) was “active; positive”, the mutagenic call (Test System: AMES SALMONELLA TYPHIMURIUM, Strain/Indicator: TA100, Metabolic Activation: RAT, INTACT UROTHELIAL CELLS, Method: FLUCTUATION TEST) was “active; positive” and the mutagenic call (Test System: AMES SALMONELLA TYPHIMURIUM, Strain/Indicator: TA100, Metabolic Activation: RAT, LIVER, S-9, AROCLOR 1254, Method: PREINCUBATION) was “active; positive”. The mutagenic call (Test System: AMES SALMONELLA TYPHIMURIUM, Strain/Indicator: TA100, Metabolic Activation: RAT, LIVER, S-9, KC500 OR PHENOBARBITAL, Method: LIQUID SUSPENSION) was “active; positive”, the mutagenic call (Test System: AMES SALMONELLA TYPHIMURIUM, Strain/Indicator: TA104, Metabolic Activation: RAT, LIVER, S-9, AROCLOR 1254, Method: PREINCUBATION) was “active; positive” and the mutagenic call (Test System: AMES SALMONELLA TYPHIMURIUM, Strain/Indicator: TA1530, Metabolic Activation: RAT, LIVER, S-9, Method: STANDARD PLATE) was “active; positive”. For the same molecule, the mutagenic call (Test System: AMES SALMONELLA TYPHIMURIUM, Strain/Indicator: TA1535, Metabolic Activation: NONE, Method: PREINCUBATION) was “inactive; negative”, the mutagenic call (Test System: AMES SALMONELLA TYPHIMURIUM, Strain/Indicator: TA1535, Metabolic Activation: RAT, LIVER, HEPATOCYTES, Method: PREINCUBATION) was “inactive; negative” and the mutagenic call (Test System: AMES SALMONELLA TYPHIMURIUM, Strain/Indicator: TA1535, Metabolic Activation: RAT, LIVER, MICROSOMES, KANECHLOR 500, Method: PREINCUBATION) was “active; positive”. The mutagenic call (Test System: AMES SALMONELLA TYPHIMURIUM, Strain/Indicator: TA1535, Metabolic Activation: RAT, LIVER, S-9, AROCLOR 1254, Method: PREINCUBATION) was “active; positive”, the mutagenic call (Test System: AMES SALMONELLA TYPHIMURIUM, Strain/Indicator: TA1535, Metabolic Activation: RAT, LIVER, S-9, AROCLOR, Method: PREINCUBATION) was “active; positive” and the mutagenic call (Test System: AMES SALMONELLA TYPHIMURIUM, Strain/Indicator: TA1535, Metabolic Activation: RAT, LIVER, S-9, SODIUM PHENOBARBITONE, Method: PREINCUBATION) was “active; positive”. The mutagenic call (Test System: AMES SALMONELLA TYPHIMURIUM, Strain/Indicator: TA1535, Metabolic Activation: RAT, LIVER, S-9, Method: PREINCUBATION) was “inactive; negative”, the mutagenic call (Test System: AMES SALMONELLA TYPHIMURIUM, Strain/Indicator: TA1535ER, Metabolic Activation: NONE, Method: STANDARD PLATE) was “inactive; negative” and the mutagenic call (Test System: AMES SALMONELLA TYPHIMURIUM, Strain/Indicator: TA1975, Metabolic Activation: RAT, LIVER, S-9, AROCLOR 1254, Method: PREINCUBATION) was “active; positive”. For the same molecule, the mutagenic call (Test System: AMES SALMONELLA TYPHIMURIUM, Strain/Indicator: YG7104ER, Metabolic Activation: NONE, Method: STANDARD PLATE) was “active; positive”, the mutagenic call (Test System: AMES SALMONELLA TYPHIMURIUM, Strain/Indicator: YG7108ER, Metabolic Activation: NONE, Method: STANDARD PLATE) was “active; positive” and the mutagenic call (Test System: CHINESE HAMSTER V-79, Strain/Indicator: V-79/8-AZAGUANINE, Metabolic Activation: RAT, LIVER, S-15, PHENOBARBITAL, Method: STANDARD PLATE) was “active; positive”. For the same molecule, the mutagenic call (Test System: CHINESE HAMSTER V-79, Strain/Indicator: V-79/OUABAIN, Metabolic Activation: HAMSTER, HEPATOCYTES, Method: CELL-MEDIATED) was “active; positive”, the mutagenic call (Test System: E. COLI, Strain/Indicator: WP2 (HCR), Metabolic Activation: RAT, LIVER, MICROSOMES, KANECHLOR 500, Method: PREINCUBATION) was “active; positive” and the mutagenic call (Test System: E. COLI, Strain/Indicator: WP2 (HCR-), Metabolic Activation: RAT, LIVER, MICROSOMES, PHENOBARBITAL) was “active; positive”.
